{"source": "patent US20250277066A1", "about": "“Substituted Pyridine-2,6-Bis(Phenylenephenolate) Complexes with Enhanced Solubility that are Useful as Catalyst Components for Olefin Polymerization” (ExxonMobil Chemical Patents Inc., priority 2022, published 2025)", "key": {"[1]": {"assay": "Rapid GPC of polymers (Mn, Mw, Mz, PDI)", "type": "physicochemical", "set-up": "Mn / Mw / Mz: unit not given here", "experimental": "For analytical testing, polymer sample solutions were prepared by dissolving polymer in 1,2,4-trichlorobenzene (TCB, 99+% purity from Sigma-Aldrich) containing 2,6-di-tert-butyl-4-methylphenol (BHT, 99% from Aldrich) at 165° C. in a shaker oven for approximately 3 hours. The typical concentration of polymer in solution was between 0.1 to 0.9 mg/mL with a BHT concentration of 1.25 mg BHT/mL of TCB. Samples were cooled to 135° C. for testing.\nHigh temperature size exclusion chromatography was performed using an automated “Rapid GPC” system as described in U.S. Pat. Nos. 6,491,816; 6,491,823; 6,475,391; 6,461,515; 6,436,292; 6,406,632; 6,175,409; 6,454,947; 6,260,407; and 6,294,388; each of which is incorporated herein by reference. Molecular weights (weight average molecular weight (Mw), number average molecular weight (Mn) and z average molecular weight (Mz)) and molecular weight distribution (MWD=Mw/Mn), which is also sometimes referred to as the polydispersity (PDI) of the polymer, were measured by Gel Permeation Chromatography using a Symyx Technology GPC equipped with evaporative light scattering detector (ELSD) and calibrated using polystyrene standards (Polymer Laboratories: Polystyrene Calibration Kit S-M-10: Mp (peak Mw) between 5,000 and 3,390,000). Alternatively, samples were measured by Gel Permeation Chromatography using a Symyx Technology GPC equipped with dual wavelength infrared detector and calibrated using polystyrene standards (Polymer Laboratories: Polystyrene Calibration Kit S-M-10: Mp (peak Mw) between 580 and 3,039,000). […] No column spreading corrections were employed. Numerical analyses were performed using Epoch® software available from Symyx Technologies or Automation Studio software available from Freeslate. The molecular weights obtained are relative to linear polystyrene standards. Molecular weight data is reported in Table 2 under the headings Mn, Mw, Mz and PDI as defined above."}, "[2]": {"assay": "Propylene polymerization (PP) in small-scale autoclave reactors: yield, quench time, catalyst activity", "source_text": "Solutions of the pre-catalysts were made using toluene (ExxonMobil Chemical—anhydrous, stored under N2) (98%) or isohexane (ExxonMobil Chemical—polymerization grade, and purified as described below). Pre-catalyst solutions were typically 0.25 mmol/L.\nSolvents, polymerization grade toluene and/or isohexanes were supplied by ExxonMobil Chemical Co. and are purified by passing through a series of columns: two 500 cc Oxyclear cylinders in series from Labclear (Oakland, Calif), followed by two 500 cc columns in series packed with dried […] (8-12 mesh; Aldrich Chemical Company), and two 500 cc columns in series packed with dried 5 Å mole sieves (8-12 mesh; Aldrich Chemical Company).\nPolymerization grade propylene (C3) was used and further purified by passing it through a series of columns: 2250 cc Oxiclear cylinder from Labclear followed by a 2250 cc column packed with 3 Å mole sieves (8-12 mesh; Aldrich Chemical Company), then two 500 cc columns in series packed with 5 Å mole sieves (8-12 mesh; Aldrich Chemical Company), then a 500 cc column packed with Selexsorb CD (BASF), and finally a 500 cc column packed with Selexsorb COS (BASF).\nActivation of the pre-catalysts was either by dimethylanilinium tetrakisperfluorophenylborate (Boulder Scientific or Albemarle Corp; Act ID=A) or is (hydrogenated tallow alkyl)methylammonium tetrakis(pentafluorophenyl)borate supplied as a 10 wt % solution in methylcyclohexane (Boulder Scientific; Act ID=B). Activators were typically used as a 0.25 mmol/L solution in toluene or isohexane.\nTri-n-octylaluminum (TnOAl or TNOA, Neat, AkzoNobel) was also used as a scavenger prior to introduction of the activator and pre-catalyst into the reactor. TNOA was typically used as a 5 mmol/L solution in toluene or isohexane.\nPolymerizations were conducted in an inert atmosphere (N2) drybox using autoclaves equipped with an external heater for temperature control, glass inserts (internal volume of reactor=23.5 mL for C2 and C2/C8; 22.5 mL for C3 runs), septum inlets, regulated supply of nitrogen, ethylene and propylene, and equipped with disposable PEEK mechanical stirrers (800 RPM). The autoclaves were prepared by purging with dry nitrogen at 110° C. or 115° C. for 5 hours and then at 25° C. for 5 hours.\nThe reactor was prepared as described above, then heated to 40° C., and then purged with propylene gas at atmospheric pressure. Toluene or isohexanes, liquid propylene (1.0 mL) and scavenger (TNOA, 0.5 μmol) were added via syringe. The reactor was then brought to process temperature (70° C. or 100° C.) while stirring at 800 RPM. The activator solution, followed by the pre-catalyst solution, were injected via syringe to the reactor at process conditions. Reactor temperature was monitored and typically maintained within +/−1° C. Polymerizations were halted by addition of approximately 50 psi compressed dry air gas mixture to the autoclaves for approximately 30 seconds. The polymerizations were quenched based on a predetermined pressure loss (maximum quench value) or for a maximum of 30 minutes. The reactors were cooled and vented. The polymers were isolated after the solvent was removed in-vacuo. The actual quench time (s) is reported as quench time (s). Yields reported include total weight of polymer and residual catalyst. Catalyst activity is reported as grams of polymer per mmol transition metal compound per hour of reaction time (g/mmol·hr).\nPolymerization results are collected in Tables 2 below. “Ex #” stands for example number. Example numbers starting with a “C” are comparative examples. “Cat ID” identifies the pre-catalyst used in the experiment. Corresponding numbers identifying the pre-catalyst (also referred to as pre-catalyst, catalyst, complex or compound) are located in the synthetic experimental section. T(° C.) is the polymerization temperature which was typically maintained within +/−1° C. “Yield” is polymer yield, and is not corrected for catalyst residue. […]"}, "[3]": {"conditions": "polymer made with activator A, T 70 ° C."}, "[4]": {"conditions": "polymer made with activator A, T 100 ° C."}, "[5]": {"conditions": "polymer made with activator B, T 70 ° C."}, "[6]": {"conditions": "polymer made with activator B, T 100 ° C."}, "[7]": {"conditions": "polypropylene made with activator A at 70° C."}, "[8]": {"conditions": "polypropylene made with activator A at 100° C."}, "[9]": {"conditions": "polypropylene made with activator B at 70° C."}, "[10]": {"conditions": "polypropylene made with activator B at 100° C."}}, "note": "Values joined by “and” are separate entries in the source; they are usually repeats but may differ in a detail not shown here. Equal values may be shown once.", "data": [{"smiles": "Cc1cc2[n+]3c(c1)-c1ccccc1-c1cc(C(C)(C)C)cc(C45CC6CC(CC(C6)C4)C5)c1[O][Zr-]3([CH3])([CH3])[O]c1c(cc(C(C)(C)C)cc1C13CC4CC(CC(C4)C1)C3)-c1ccccc1-2", "note": "[Complex 3]", "values": [{"measurement": "Mn", "setting": "[1]; [3]", "value": "151,894 and 189,341"}, {"measurement": "Mw", "setting": "[1]; [3]", "value": "555,461 and 618,660"}, {"measurement": "Mz", "setting": "[1]; [3]", "value": "2,204,591 and 1,998,977"}, {"measurement": "PDI", "setting": "[1]; [3]", "value": "3.66 and 3.27"}, {"measurement": "Mn", "setting": "[1]; [4]", "value": "97,418 and 70,184 and 116,079"}, {"measurement": "Mw", "setting": "[1]; [4]", "value": "211,821 and 182,436 and 245,630"}, {"measurement": "Mz", "setting": "[1]; [4]", "value": "590,904 and 640,309 and 691,819"}, {"measurement": "PDI", "setting": "[1]; [4]", "value": "2.17 and 2.60 and 2.12"}, {"measurement": "Mn", "setting": "[1]; [5]", "value": "251,087 and 247,428 and 294,324"}, {"measurement": "Mw", "setting": "[1]; [5]", "value": "611,739 and 605,320 and 723,438"}, {"measurement": "Mz", "setting": "[1]; [5]", "value": "1,641,465 and 1,654,930 and 2,228,894"}, {"measurement": "PDI", "setting": "[1]; [5]", "value": "2.44 and 2.45 and 2.46"}, {"measurement": "Mn", "setting": "[1]; [6]", "value": "136,672 and 115,932 and 136,724"}, {"measurement": "Mw", "setting": "[1]; [6]", "value": "263,279 and 217,696 and 285,817"}, {"measurement": "Mz", "setting": "[1]; [6]", "value": "693,703 and 504,146 and 859,182"}, {"measurement": "PDI", "setting": "[1]; [6]", "value": "1.93 and 1.88 and 2.09"}, {"measurement": "Activity", "setting": "[2]; activator A, T 70° C.", "value": "1,623,360 g P/mmol cat • hr and 2,345,333 g P/mmol cat • hr"}, {"measurement": "Activity", "setting": "[2]; activator B, T 70° C.", "value": "1,030,400 g P/mmol cat • hr and 1,074,880 g P/mmol cat • hr and 1,034,182 g P/mmol cat • hr"}, {"measurement": "Activity", "setting": "[2]; activator B, T 100° C.", "value": "844,235 g P/mmol cat • hr and 476,276 g P/mmol cat • hr and 766,154 g P/mmol cat • hr"}]}, {"smiles": "CC(C)(C)c1cc2c(c(C34CC5CC(CC(C5)C3)C4)c1)[O][Zr-]1([CH3])([CH3])[O]c3c(cc(C(C)(C)C)cc3C34CC5CC(CC(C5)C3)C4)-c3ccccc3-c3cccc([n+]31)-c1ccccc1-2", "note": "[Complex 2]", "values": [{"measurement": "Mn", "setting": "[1]; [7]", "value": "51,771 and 73,251 and 79,137"}, {"measurement": "Mw", "setting": "[1]; [7]", "value": "409,655 and 422,884 and 427,915"}, {"measurement": "Mz", "setting": "[1]; [7]", "value": "1,643,708 and 1,794,768 and 1,704,507"}, {"measurement": "PDI", "setting": "[1]; polypropylene made with activator A at 70° C., Mw/Mn", "value": "7.91 and 5.77 and 5.41"}, {"measurement": "Mw", "setting": "[1]; [8]", "value": "157,755 and 118,735 and 149,968"}, {"measurement": "Mz", "setting": "[1]; [8]", "value": "608,816 and 547,511 and 649,731"}, {"measurement": "PDI", "setting": "[1]; polypropylene made with activator A at 100° C., Mw/Mn", "value": "3.82 and 5.79 and 4.78"}, {"measurement": "Mn", "setting": "[1]; [9]", "value": "142,243 and 146,842 and 153,727"}, {"measurement": "Mw", "setting": "[1]; [9]", "value": "528,329 and 583,343 and 515,347"}, {"measurement": "Mz", "setting": "[1]; [9]", "value": "1,786,121 and 2,112,818 and 1,774,716"}, {"measurement": "PDI", "setting": "[1]; polypropylene made with activator B at 70° C., Mw/Mn", "value": "3.71 and 3.97 and 3.35"}, {"measurement": "Mn", "setting": "[1]; [10]", "value": "63,491 and 54,833 and 47,288"}, {"measurement": "Mw", "setting": "[1]; [10]", "value": "180,083 and 161,679 and 169,722"}, {"measurement": "Mz", "setting": "[1]; [10]", "value": "621,548 and 531,840 and 733,298"}, {"measurement": "PDI", "setting": "[1]; polypropylene made with activator B at 100° C., Mw/Mn", "value": "2.84 and 2.95 and 3.59"}, {"measurement": "Activity", "setting": "[2]; activator B, T 70° C.", "value": "2,069,268 g P/mmol cat • hr and 4,201,200 g P/mmol cat • hr and 3,074,182 g P/mmol cat • hr"}, {"measurement": "Activity", "setting": "[2]; activator B, T 100° C.", "value": "2,345,000 g P/mmol cat • hr and 2,682,545 g P/mmol cat • hr and 2,225,032 g P/mmol cat • hr"}]}]}
